Like-named read-outs stand apart in the source and are kept apart here.
Experiments:
Format in all cases: in vivo
[1] = test system: yellow striped flea beetles; experiment: Test of use as a cell tray drench treatment agent (Chinese cabbage); details: for No. of plant damage scars/4 plants: counted 6 days after release
Experimental: 3.57 g of wettable powder 2 obtained in Example 20 were dispersed in 1 liter of water to prepare a chemical liquid. 0.5 ml of chemical liquid per plant were dropped onto Chinese cabbage seedlings at the 4 to 4.5 leaf stage cultured in cell trays from above using a pipette. On the day following chemical treatment, the treated seedlings were planted in No. 6 flower pots containing Kuroboku soil and cultivated in a greenhouse. Each pot was covered with a cylindrical cage at 2, 14 and 28 days after planting, 10 adult yellow striped flea beetles were released inside the cages, and the numbers of plant damage scars caused by the adult yellow striped flea beetles were counted for four pots in each test group 6 days after releasing the insect pests. For the control, similar tests were carried out in the case of treating with commercially available bifenthrin SC and in the case of non-treatment.

[2] = test system: yellow striped flea beetles; experiment: Test of use as a seed treatment agent by combining with synthetic pyrethroids (rapeseed); details: Inoculation 18 days after seeding; for No. of plant damage scars/3 plants, Average / No. of plant damage scars/3 plants, Repeat A / No. of plant damage scars/3 plants, Repeat B: 3 days in cage, 500 g of each active per 100 kg of rapeseed seeds; for Control rate: relative to untreated group
Experimental: Wettable powder 2 obtained in Example 20 was dispersed in 2.8 ml of a solution (sticker solution), in which 5% by weight of polyvinyl alcohol (Gohsenol GL05S, Nippon Synthetic Chemical) and 1% by weight of a surfactant in the form of sodium lignin sulfonate ([…] RX-B, Takemoto Oil & Fat) were dissolved in 94% by weight of water, so as to contain […] of acetamiprid, 0.35 ml of this dispersion were placed in a vinyl bag provided with a zipper containing 8 g of rapeseed seeds, immediately after which the zipper was closed followed by mixing by shaking vigorously for 30 seconds to adhere the chemical to the rapeseed seeds. The seeds were then spread out in a thin layer in a vat and air-dried overnight at room temperature to obtain rapeseed seeds adhered with 500 g of acetamiprid per 100 kg of seeds.
1 g of cypermethrin wettable powder (active ingredient: […]) was dispersed in 1.3 ml of distilled water, and 0.65 ml of this dispersion (20 mg as cypermethrin) were placed in a vinyl bag provided with a zipper containing 8 g of rapeseed seeds adhered with 500 g of acetamiprid per 100 kg of seeds, immediately after which the zipper was closed followed by mixing by shaking vigorously for 30 seconds to adhere the chemical to the rapeseed seeds. The seeds were then spread out in a thin layer in a vat and air-dried for 1 to 2 hours at room temperature followed by again placing in a vinyl bag provided with a zipper, adding 0.65 ml of the aforementioned dispersion and repeating the same procedure. These seeds were then spread out in a thin layer in a vat followed by allowing to air dry overnight at room temperature to obtain rapeseed seeds adhered with 500 g of cypermethrin and 500 g of acetamiprid per 100 kg of seeds.
In addition, wettable powder 2 obtained in Example 20 was dispersed in 1.1 g of bifenthrin SC (active ingredient: 7.2% by weight) so as to contain 80 mg of acetamiprid, and 0.55 ml of this dispersion (40 mg as bifenthrin and 40 mg of acetamiprid) were placed in a vinyl bag provided with a zipper containing 8 g of rapeseed seeds, followed immediately by mixing by shaking vigorously for 30 seconds to adhere the chemical to the seeds. The seeds were then spread out in a thin layer in a vat and air-dried overnight at room temperature to obtain rapeseed seeds adhered with 500 g of bifenthrin and 500 g of acetamiprid per 100 kg of seeds.
The resulting seeds were planted in a No. 2 flower pot containing alluvial soil and cultivated in a greenhouse. Eighteen days after seeding, rapeseed seedlings were transferred to a cage in which 100 adult yellow striped flea beetles had been released, and after allowing to stand for 3 days, the number of plant damage scars caused by the adult yellow striped flea beetles was counted for three plants in each test group. For the control, similar tests were carried out in the case of treating with 500 g of wettable powder 2, cypermethrin or bifenthrin alone per 100 kg of seeds, and in the case of non-treatment. Control rate (%)=((no. of scars of untreated group−no. of scars of treated group)/(no. of scars of untreated group))×100.

Nephotettix cincticeps = experiment: Test of use as a paddy treatment agent by seedling box drench treatment; details: for mortality at 0.03 ppm / mortality at 0.08 ppm / mortality at 0.12 ppm: Nephotettix cincticeps, soil, read-out: Insect mortality rate
Experimental: Wettable powder 4 obtained in Example 22 was diluted with water to a predetermined concentration to prepare a chemical liquid. 10 ml per tray of the chemical liquid was dropped onto the surface of soil containing seedlings having a height of about 10 cm cultivated in small plastic trays filled with granular planting soil using a pipette. Following chemical treatment, the trays were covered with a cylindrical cage and 6 two-instar Nephotettix cincticeps were released inside followed by counting the number of […] at 3 and 7 days after releasing the insect pests. For the control, similar tests were carried out for the case of treating with imidacloprid, and in the case of non-treatment. The control imidacloprid was sprayed onto the plants after adjusting to 5% by weight in dimethylformamide containing 1.5% by weight of Tween 20 and diluting with water.
Corrected insecticidal rate (%)=((survival rate in untreated group−survival rate in treated group)/survival rate in untreated group)×100

What does the source list for Cc1c(COC(=O)[C@@H]2[C@H](/C=C(\Cl)C(F)(F)F)C2(C)C)cccc1-c1ccccc1 (racemic) [Bifenthrin, bifenthrin]?
Control rate ([1]; After 2 days): 87.1%; Control rate ([1]; After 14 days): 70.6%; Control rate ([1]; After 28 days): 40.7%; No. of plant damage scars/4 plants ([1]; beetles released After 2 days from planting, 0.5 ml of chemical liquid per plant): 4; No. of plant damage scars/4 plants ([1]; beetles released After 14 days from planting): 103; No. of plant damage scars/4 plants ([1]; beetles released After 28 days from planting): 934; No. of plant damage scars/3 plants, Average [2]: 270; No. of plant damage scars/3 plants, Repeat A [2]: 306; No. of plant damage scars/3 plants, Repeat B [2]: 234; Control rate [2]: 3.2%

How did the “No. of plant damage scars/3 plants, Average” value [2] turn out when CC1(C)C(C=C(Cl)Cl)C1C(=O)OC(C#N)c1cccc(Oc2ccccc2)c1 (centres unmarked) [Cypermethrin, cypermethrin] was run?
Its value is 269.

What about the “No. of plant damage scars/3 plants, Repeat A” value [2] of the same compound?
The value was 296.

What about the “No. of plant damage scars/3 plants, Repeat B” value [2] of the same compound?
Its value is 241.

And the Control rate [2]?
Its Control rate is 3.6%.

What does the source list for O=[N+]([O-])NC1=NCCN1Cc1ccc(Cl)nc1 [Imidacloprid, imidacloprid]?
Corrected insecticidal rate (Nephotettix cincticeps; Concentration 0.03 ppm, After 3 days): 83%; Corrected insecticidal rate (Nephotettix cincticeps; Concentration 0.03 ppm, After 7 days): 100%; Corrected insecticidal rate (Nephotettix cincticeps; Concentration 0.08 ppm, After 3 days): 63%; Corrected insecticidal rate (Nephotettix cincticeps; Concentration 0.08 ppm, After 7 days): 83%; Corrected insecticidal rate (Nephotettix cincticeps; Concentration 0.12 ppm, After 3 days): 100%; Corrected insecticidal rate (Nephotettix cincticeps; Concentration 0.12 ppm, After 7 days): 100%; mortality at 0.03 ppm (Nephotettix cincticeps; 72 h, Concentration 0.03 ppm, After 3 days): 83%; mortality at 0.08 ppm (Nephotettix cincticeps; 72 h, Concentration 0.08 ppm, After 3 days): 63%; mortality at 0.12 ppm (Nephotettix cincticeps; 72 h, Concentration 0.12 ppm, After 3 days): 100%; mortality at 0.03 ppm (Nephotettix cincticeps; 168 h, Concentration 0.03 ppm, After 7 days): 100%; mortality at 0.08 ppm (Nephotettix cincticeps; 168 h, Concentration 0.08 ppm, After 7 days): 83%; mortality at 0.12 ppm (Nephotettix cincticeps; 168 h, Concentration 0.12 ppm, After 7 days): 100%
